Where “and” joins values, the source holds several entries; their conditions need not be identical. Equal entries are not always repeated.
Test: mn = molality of the nth substance listed, in mol/kg
Conditions: 101 kPa, Liquid; for speed of sound: Sing-around technique in a fixed-path interferometer; for mass density: Vibrating tube method; for viscosity: Capillary tube (Ostwald / Ubbelohde) method

O=C([O-])CC(O)(CC(=O)[O-])C(=O)[O-].[K+].[K+].[K+] [potassium citrate] + O
Conditions | mass density [kg/m3] | speed of sound | viscosity
293.15 K, m1 = 0.0472 | 1007.81 | 1492.8 m/s | –
293.15 K, m1 = 0.0566 | 1009.7 | 1494.6 m/s | –
293.15 K, m1 = 0.066 | 1011.58 | 1496.5 m/s | –
293.15 K, m1 = 0.0754 | 1013.45 | 1498.3 m/s | –
293.15 K, m1 = 0.0849 | 1015.34 | 1500.2 m/s | –
293.15 K, m1 = 0.0943 | 1017.2 | 1502.1 m/s | –
293.15 K, m1 = 0.2984 | 1055.65 | 1540.4 m/s | –
293.15 K, m1 = 0.3971 | 1073.05 | 1558.2 m/s | –
293.15 K, m1 = 0.4955 | 1089.85 | 1576 m/s | –
293.15 K, m1 = 0.5936 | 1106.03 | 1593.3 m/s | –
293.15 K, m1 = 0.7877 | 1136.49 | 1626.4 m/s | –
293.15 K, m1 = 0.9823 | 1165.2 | 1658.6 m/s | –
293.15 K, m1 = 1.175 | 1191.92 | 1689.6 m/s | –
293.15 K, m1 = 1.366 | 1216.69 | 1718.7 m/s | –
293.15 K, m1 = 1.555 | 1239.9 | 1746.2 m/s | –
293.15 K, m1 = 1.837 | 1272.28 | 1784.9 m/s | –
298.15 K, m1 = 0.0472 | 1006.59 | 1506.6 m/s | 1.027 mPa·s and 0.911 mPa·s
298.15 K, m1 = 0.0566 | 1008.46 | 1508.5 m/s | 0.918 mPa·s and 1.027 mPa·s
298.15 K, m1 = 0.066 | 1010.33 | 1510.3 m/s | 0.924 mPa·s and 1.029 mPa·s
298.15 K, m1 = 0.0754 | 1012.19 | 1512 m/s | 0.93 mPa·s and 1.033 mPa·s
298.15 K, m1 = 0.0849 | 1014.06 | 1513.9 m/s | 0.935 mPa·s and 1.037 mPa·s
298.15 K, m1 = 0.0943 | 1015.89 | 1515.7 m/s | 0.942 mPa·s and 1.041 mPa·s
298.15 K, m1 = 0.2984 | 1054.02 | 1552.8 m/s | 1.065 mPa·s and 1.132 mPa·s
298.15 K, m1 = 0.3971 | 1071.35 | 1570.1 m/s | 1.13 mPa·s and 1.183 mPa·s
298.15 K, m1 = 0.4955 | 1088.07 | 1587 m/s | 1.2 mPa·s and 1.238 mPa·s
298.15 K, m1 = 0.5936 | 1104.21 | 1603.8 m/s | 1.274 mPa·s and 1.295 mPa·s
298.15 K, m1 = 0.7877 | 1134.65 | 1636.2 m/s | 1.423 mPa·s and 1.441 mPa·s
298.15 K, m1 = 0.9823 | 1163.14 | 1667.5 m/s | 1.575 mPa·s and 1.624 mPa·s
298.15 K, m1 = 1.175 | 1189.77 | – | 1.733 mPa·s and 1.837 mPa·s
298.15 K, m1 = 1.366 | 1214.46 | – | 1.92 mPa·s and 2.072 mPa·s
298.15 K, m1 = 1.555 | 1237.68 | – | 2.121 mPa·s and 2.334 mPa·s
298.15 K, m1 = 1.837 | 1269.96 | – | 2.476 mPa·s and 2.788 mPa·s
303.15 K, m1 = 0.0472 | 1005.15 | 1518.1 m/s | 0.821 mPa·s
303.15 K, m1 = 0.0566 | 1007.02 | 1519.9 m/s | 0.822 mPa·s
303.15 K, m1 = 0.066 | 1008.87 | 1521.7 m/s | 0.825 mPa·s
303.15 K, m1 = 0.0754 | 1010.72 | 1523.5 m/s | 0.832 mPa·s
303.15 K, m1 = 0.0849 | 1012.58 | 1525.3 m/s | 0.837 mPa·s
303.15 K, m1 = 0.0943 | 1014.42 | 1527 m/s | 0.843 mPa·s
303.15 K, m1 = 0.2984 | 1052.39 | 1563.6 m/s | 0.956 mPa·s
303.15 K, m1 = 0.3971 | 1069.63 | 1580.3 m/s | 1.016 mPa·s
303.15 K, m1 = 0.4955 | 1086.25 | 1596.8 m/s | 1.08 mPa·s
303.15 K, m1 = 0.5936 | 1102.31 | 1613.3 m/s | 1.145 mPa·s
303.15 K, m1 = 0.7877 | 1132.65 | 1644.5 m/s | 1.295 mPa·s
303.15 K, m1 = 0.9823 | 1161.02 | 1674.8 m/s | 1.458 mPa·s
303.15 K, m1 = 1.175 | 1187.66 | 1697.5 m/s | 1.647 mPa·s
303.15 K, m1 = 1.366 | 1212.46 | 1725.7 m/s | 1.853 mPa·s
303.15 K, m1 = 1.555 | 1235.64 | 1752.6 m/s | 2.085 mPa·s
303.15 K, m1 = 1.837 | 1267.94 | 1790.3 m/s | 2.484 mPa·s
308.15 K, m1 = 0.0472 | 1003.5 | 1529 m/s | 0.739 mPa·s
308.15 K, m1 = 0.0566 | 1005.36 | 1530.8 m/s | 0.741 mPa·s
308.15 K, m1 = 0.066 | 1007.2 | 1532.5 m/s | 0.744 mPa·s
308.15 K, m1 = 0.0754 | 1009.04 | 1534.2 m/s | 0.749 mPa·s
308.15 K, m1 = 0.0849 | 1010.89 | 1535.9 m/s | 0.754 mPa·s
308.15 K, m1 = 0.0943 | 1012.72 | 1537.6 m/s | 0.76 mPa·s
308.15 K, m1 = 0.2984 | 1050.43 | 1572.8 m/s | 0.861 mPa·s
308.15 K, m1 = 0.3971 | 1067.62 | 1589 m/s | 0.916 mPa·s
308.15 K, m1 = 0.4955 | 1084.2 | 1605.1 m/s | 0.975 mPa·s
308.15 K, m1 = 0.5936 | 1100.17 | 1620.8 m/s | 1.036 mPa·s
308.15 K, m1 = 0.7877 | 1130.41 | 1651.3 m/s | 1.168 mPa·s
308.15 K, m1 = 0.9823 | 1158.81 | 1681 m/s | 1.316 mPa·s
308.15 K, m1 = 1.175 | 1185.33 | 1704 m/s | 1.486 mPa·s
308.15 K, m1 = 1.366 | 1210.05 | 1731.7 m/s | 1.671 mPa·s
308.15 K, m1 = 1.555 | 1233.31 | 1757.9 m/s | 1.875 mPa·s
308.15 K, m1 = 1.837 | 1265.24 | 1794.7 m/s | 2.231 mPa·s
313.15 K, m1 = 0.0472 | 1001.66 | 1538.1 m/s | 0.665 mPa·s
313.15 K, m1 = 0.0566 | 1003.51 | 1539.8 m/s | 0.668 mPa·s
313.15 K, m1 = 0.066 | 1005.35 | 1541.4 m/s | 0.672 mPa·s
313.15 K, m1 = 0.0754 | 1007.18 | 1543 m/s | 0.675 mPa·s
313.15 K, m1 = 0.0849 | 1009.03 | 1544.7 m/s | 0.68 mPa·s
313.15 K, m1 = 0.0943 | 1010.86 | 1546.4 m/s | 0.684 mPa·s
313.15 K, m1 = 0.2984 | 1048.42 | 1580.5 m/s | 0.783 mPa·s
313.15 K, m1 = 0.3971 | 1065.62 | 1596.5 m/s | 0.832 mPa·s
313.15 K, m1 = 0.4955 | 1082.12 | 1612 m/s | 0.887 mPa·s
313.15 K, m1 = 0.5936 | 1098.03 | 1627.4 m/s | 0.94 mPa·s
313.15 K, m1 = 0.7877 | 1128.2 | 1657.5 m/s | 1.063 mPa·s
313.15 K, m1 = 0.9823 | 1156.41 | 1686.1 m/s | 1.196 mPa·s
313.15 K, m1 = 1.175 | 1182.97 | 1709.4 m/s and 1714 m/s | 1.351 mPa·s
313.15 K, m1 = 1.366 | 1207.69 | 1736.3 m/s and 1740.3 m/s | 1.516 mPa·s
313.15 K, m1 = 1.555 | 1230.6 | 1762.1 m/s and 1765.2 m/s | 1.697 mPa·s
313.15 K, m1 = 1.837 | 1262.83 | 1797.6 m/s and 1800.3 m/s | 2.013 mPa·s
